# How the values were obtained:
# [1] = tested on: fat absorption; assay: Fat absorption (C-14 triolein) in mice on fat diet, single and repeated administration of LOC; format: in vivo, Albino mice; details: LOC 50 mg/kg body wt.
# Excerpt: Determination of the activity of a lipase inhibitor using the lipstatin derivative LOC defined above, by way of example, on the fat s absorption from the feed in the case of single and repeated administration to mice was undertaken.
# 3 Albino mice weighing 25 g were used per dose in the test.
# The mice received over several days a so-called fat diet in which the fat content was adjusted such that the mice received 23.4 g of fat per kg body wt. per day. The mice were fed with this feed for 8 days. On days 3 to 6 of the test C-14, labelled triolein and LOC in a dose of 50 mg/kg body weight were admixed with this feed. The feces of the mice was collected at intervals of 24 hours from days 4 to 8 of the test and evaluated according to the guidelines given in Example 1.
# The control animals each received the test diet without the LOC active substance.
# The absorption of the orally administered fat was measured as in Examples 1, and 2.
# [2] = Consistency of feces of the dogs; format: in vivo
# [3] = Blood plasma total glycerol in dogs after a test meal with THL and cellulose; format: in vivo; details: 50 mg THL + 80 g cellulose
# Excerpt: Female dogs aged 7 to 15 years and having a body weight between 13 and 22 kg are divided into 2 groups each of 6 animals. The animals are fed with a standard dog food. The animals have free access to drinking water. The animals are given a test meal on the day of the test. This test meal contains as feed components 7.5% protein, 19% is carbohydrate, 6% fat, 1.6% minerals, 45% water and 20% ballast materials. The fat of the feed consists of 58% olive oil treated with C-14 triolein. The remaining fat is composed predominantly of saturated fatty acids. The blood plasma concentrations with respect to total glycerol of dogs which received test diet of 50 mg THL +80 g cellulose have been compared in Table 2 with those of a control without THL, but with cellulose.
# [4] = tested on: fat absorption; assay: Fat absorption from test meal in dogs (C-14 triolein recovery in feces), THL with or without cellulose; format: in vivo; details: for Triolein absorption in % of the applied dose: 26 g fat
# Excerpt: Female dogs aged 7 to 15 years and having a body weight between 13 and 22 kg are divided into 2 groups each of 6 animals. The animals are fed with a standard dog food. The animals have free access to drinking water. The animals are given a test meal on the day of the test. This test meal contains as feed components 7.5% protein, 19% is carbohydrate, 6% fat, 1.6% minerals, 45% water and 20% ballast materials. The fat of the feed consists of 58% olive oil treated with C-14 triolein. The remaining fat is composed predominantly of saturated fatty acids. The absorption of the fat administered orally with the test diet was measured on the basis of the recovered radioactivity in the feces of the dogs. The difference between the orally-administered amount of C-14 labelled triolein and the radioactivity found in the feces within three days after intake of the test meal is considered to be absorbed fat. The absorbed amount is given as a percentage of the administered amount. The lower the absorption is, that is, the lower the percentage is, then the greater is the activity of the lipase inhibitor.
# [5] = tested on: fat absorption; assay: Dog test: fat absorption (C-14 triolein), LST in the fermentation cake alone or with cellulose; format: in vivo, dogs; details: even when present in a fermentation cake; confirms mouse test
# Excerpt: Female dogs aged 7 to 15 years and having a body weight between 13 and 22 kg are divided into 2 groups each of 6 animals. The animals are fed with a standard dog food. The animals have free access to drinking water.
# The animals are given a test meal on the day of the test. This test meal contains as feed components 7.5% protein, 19% is carbohydrate, 6% fat, 1.6% minerals, 45% water and 20% ballast materials. The fat of the feed consists of 58% olive oil treated with C-14 triolein. The remaining fat is composed predominantly of saturated fatty acids.
# The absorption of the fat administered orally with the test diet was measured on the basis of the recovered radioactivity in the feces of the dogs. The difference between the orally-administered amount of C-14 labelled triolein and the radioactivity found in the feces within three days after intake of the test meal is considered to be absorbed fat. The absorbed amount is given as a percentage of the administered amount. The lower the absorption is, that is, the lower the percentage is, then the greater is the activity of the lipase inhibitor.
# Microbiologically-produced lipstatin (LST) is used as the lipase inhibitor in both parts of the test. […] The content of LST in the cake was determined at 4 g of LST per kg of fresh fermentation cake using conventional analytical methods. […]
# [6] = tested on: fat absorption; assay: Mouse test: fat absorption (C-14 triolein), pure LST versus LST in a fermentation cake; format: in vivo; details: oral, 3 mice
# Protocol: Microbiologically-produced lipstatin (LST) is used as the lipase inhibitor in both parts of the test. LST is equivalent as a chemically pure substance with LST as a component of a fermentation cake produced according to Example 4 of EP 129 748. The content of LST in the cake was determined at 4 g of LST per kg of fresh fermentation cake using conventional analytical methods.
# a) Mouse test Comparison of chemically pure LST with LST as a component of a fermentation cake.
# Pure LST or the dried fermentation cake was suspended in 5% gum arabic/5% lactose preparation, conventional in pharmacological tests, and administered orally to animals, which had been pre-fasted for 24 hours, in an amount of 10 ml/kg per mouse immediately after a liquid test meal. The test meal contained 2.5% starch, 24% glucose, 12% lactose and 7.6% olive oil labelled with C-14 triolein. Thereafter, the mice received a conventional standard feed.
# The calculation of the absorbed fat in the feed was carried out as described in Example 1.
# The results of the test are reported in Table 3 in which the LST dose is calculated per mg/kg body weight. The values are average values calculated from measurements on, in each case, 3 mice per test.
smiles,measurement,setting,value
"CCCCCCCCCCCCCCCCC[C@@H](C[C@@H]1OC(=O)[C@H]1CC)OC(=O)[C@H](CC(C)C)NC=O [LOC, N-formyl-L-leucine (S)-1-[[(2S,3S)-3-ethyl-4-oxo-2-oxetanyl]methyl]octadecyl ester]",Triolein absorption in % of the amount given orally (±SDM),[1]; 1st day,26 ± 4%
same,Triolein absorption in % of the amount given orally (±SDM),[1]; 4th day,26 ± 3%
"CCCCCCCCCCC[C@@H](C[C@@H]1OC(=O)[C@H]1CCCCCC)OC(=O)[C@H](CC(C)C)NC=O [THL, tetrahydrolipstatin]",consistency of the feces,[2]; THL in combination with cellulose,solid and formed
same,consistency of the feces,[2]; THL without cellulose,rather pulp-like
same,Total plasma glycerol,[3]; 3 hrs. after administration,0.5 ± 0.02 mmol/l ± SEM
same,Total plasma glycerol,[3]; 7 hrs. after administration,0.9 ± 0.13 mmol/l ± SEM
same,Total plasma glycerol,[3]; before administration (starting value),0.7 ± 0.07 mmol/l ± SEM
same,plasma glycerol increase,[3]; 3 hours after test meal,no increase
same,increase in the absorption,[3]; 7 hours postprandial,slight increase
same,attenuated fat absorption,[4]; 50 mg THL + 80 g cellulose,28%
same,Triolein absorption in % of the applied dose,"[4]; THL 20 mg/test meal (1.5 mg/kg body wt.) + 80 g cellulose, 420 g test meal",48%
same,Triolein absorption in % of the applied dose,"[4]; THL 20 mg/test meal (1.5 mg/kg body wt.), no cellulose, 340 g test meal",70%
same,Triolein absorption in % of the applied dose,"[4]; THL 50 mg/test meal (4 mg/kg body wt.) + 80 g cellulose, 420 g test meal",28%
same,Triolein absorption in % of the applied dose,"[4]; THL 50 mg/test meal (4 mg/kg body wt.), no cellulose, 340 g test meal",63%
same,activity of the lipase inhibitor when cellulose is added,[4]; THL + cellulose versus THL alone,considerably increased
same,inhibition of the absorption of the administered radioactively labelled fat in the feed,[4]; THL after addition of cellulose (about),52-70%
same,reduction of the absorption of fat contained in the feed,"[4]; THL as sole additive to the test meal, depending on the dose (20 or 50 mg/meal)",30-37%
"CCCCCCCCCCC[C@@H](C[C@@H]1OC(=O)[C@H]1CCCCCC)OC(=O)[C@H](CC(C)C)NC=O [pure LST, lipstatin]",lipase inhibitor activity,[5],very active lipase inhibitor
same,Triolein absorption in % per dose administered,[6]; LST dose 5.0 mg/kg,69%
same,Triolein absorption in % per dose administered,[6]; LST dose 15 mg/kg,52%
same,Triolein absorption in % per dose administered,[6]; LST dose 50.0 mg/kg,41%
